Results as given in patent publication US20040181075A1, “Process of making chalcone derivatives” (priority 2002, published 2004).

melting point	SMILES
231 to 232 °C (dec.)	COc1cc(OC)c(-c2cc3ccccc3s2)cc1/C=C/C(=O)c1ccc(C(=O)O)cc1 [Example 3, 4-[(2E)-3-(5-benzo[b]thien-2-yl-2,4-dimethoxyphenyl)-1-oxo-2-propenyl]-benzoic acid]
176 to 178 °C	COc1cc(OC)c(-c2cc3ccccc3s2)cc1/C=C\C(=O)c1ccc(C(=O)O)cc1 [Example 66, 4-[(2Z)-3-(5-benzo[b]thien-2-yl-2,4-dimethoxyphenyl)-1-oxo-2-propenyl]-benzoic acid]
